Key:
Plutella xylostella = experiment: Example B8: Plutella xylostella (diamond back moth), artificial diet 24-well, eggs; assay type: in vivo; details: 192 h, application rate of 200 ppm, 8 days after infestation, read-out: effect in at least one of the two categories (mortality or growth inhibition)
Experimental: Example B8: Plutella xylostella (Diamond Back Moth)
24-well microtiter plates with artificial diet were treated with aqueous test solutions prepared from 10,000 ppm DMSO stock solutions by pipetting. After drying, Plutella eggs were pipetted through a plastic stencil onto a gel blotting paper and the plate was closed with it. The samples were assessed for mortality and growth inhibition in comparison to untreated samples 8 days after infestation.
The following compounds gave an effect of at least 80% in at least one of the two categories (mortality or growth inhibition) at an application rate of 200 ppm: […]

Chilo suppressalis = experiment: Example B1: Chilo suppressalis (striped rice stemborer), artificial diet, L2 larvae; assay type: in vivo; details: 144 h, application rate of 200 ppm, 6 days after infestation, read-out: control in at least one of the three categories (mortality, anti-feedant effect, or growth inhibition)
Experimental: Example B1: Chilo suppressalis (Striped Rice Stemborer)
24-well microtiter plates with artificial diet were treated with aqueous test solutions prepared from 10,000 ppm DMSO stock solutions by pipetting. After drying, the plates were infested with L2 larvae (6-8 per well). The samples were assessed for mortality, anti-feeding effect, and growth inhibition in comparison to untreated samples 6 days after infestation. Control of Chilo suppressalis by a test sample is given when at least one of the categories mortality, anti-feedant effect, and growth inhibition is higher than the untreated sample.

SMILES | percent effect (mortality or growth inhibition) at 200 ppm (Plutella xylostella) [%] | percent control (mortality, anti-feedant effect or growth inhibition) at 200 ppm (Chilo suppressalis) [%]
CC(NC(=O)Nc1ccc(Cl)c(C(F)(F)F)c1)c1nccnc1-n1nccn1 (stereo not drawn) [Example P259, 1-[4-chloro-3-(trifluoromethyl)phenyl]-3-[1-[3-(triazol-2-yl)pyrazin-2-yl]ethyl]urea] | ≥ 80 | 
C[C@H](NC(=O)Nc1ccc(C(F)(F)F)c(Cl)c1)c1ncnn1-c1ncccn1 [Example P128, 1-[3-chloro-4-(trifluoromethyl)phenyl]-3-[(1S)-1-(2-pyrimidin-2-yl-1,2,4-triazol-3-yl)ethyl]urea] | ≥ 80 | ≥ 80
CC(NC(=O)Nc1cc(C(F)(F)F)c(Cl)cc1Br)c1nccnc1-n1nccn1 (stereo not drawn) [Example P260, 1-[2-bromo-4-chloro-5-(trifluoromethyl)phenyl]-3-[1-[3-(triazol-2-yl)pyrazin-2-yl]ethyl]urea] | ≥ 80 | ≥ 80
COc1cc(NC(=O)N[C@@H](C)c2ncnn2-c2ncccn2)c(Br)cc1Br [Example P200, 1-(2,4-dibromo-5-methoxy-phenyl)-3-[(1S)-1-(2-pyrimidin-2-yl-1,2,4-triazol-3-yl)ethyl]urea] | ≥ 80 | ≥ 80
C[C@H](NC(=O)Nc1ccccc1OC(F)F)c1ncnn1-c1ncccn1 [Example P107, 1-[2-(difluoromethoxy)phenyl]-3-[(1S)-1-(2-pyrimidin-2-yl-1,2,4-triazol-3-yl)ethyl]urea] | ≥ 80 | ≥ 80
COc1cc(NC(=O)N[C@@H](C)c2ncnn2-c2ncccn2)c(F)cc1Br [Example P220, 1-(4-bromo-2-fluoro-5-methoxy-phenyl)-3-[(1S)-1-(2-pyrimidin-2-yl-1,2,4-triazol-3-yl)ethyl]urea] | ≥ 80 | ≥ 80
C[C@H](NC(=O)Nc1cc(Cl)ccc1C(F)(F)F)c1ncnn1-c1ncccn1 [Example P12, 1-[5-chloro-2-(trifluoromethyl)phenyl]-3-[(1S)-1-(2-pyrimidin-2-yl-1,2,4-triazol-3-yl)ethyl]urea] | ≥ 80 | 
C[C@H](NC(=O)Nc1ncc(C(F)(F)F)cc1Cl)c1ncnn1-c1ncccn1 [Example P25, 1-[3-chloro-5-(trifluoromethyl)-2-pyridyl]-3-[(1S)-1-(2-pyrimidin-2-yl-1,2,4-triazol-3-yl)ethyl]urea] | ≥ 80 | ≥ 80
CC(=O)c1cc(NC(=O)N[C@@H](C)c2ncnn2-c2ncccn2)c(Cl)cc1Cl [Example P229, 1-(5-acetyl-2,4-dichloro-phenyl)-3-[(1S)-1-(2-pyrimidin-2-yl-1,2,4-triazol-3-yl)ethyl]urea] | ≥ 80 | 
COC(=O)c1cc(NC(=O)N[C@@H](C)c2ncnn2-c2ncccn2)c(F)cc1Br [Example P228, methyl 2-bromo-4-fluoro-5-[[(1S)-1-(2-pyrimidin-2-yl-1,2,4-triazol-3-yl)ethyl]carbamoylamino]benzoate] | ≥ 80 | 
C[C@H](NC(=O)N1CCc2ccc(C(F)(F)F)cc21)c1ncnn1-c1ncccn1 [Example P50, N-[(1S)-1-(2-pyrimidin-2-yl-1,2,4-triazol-3-yl)ethyl]-6-(trifluoromethyl)indoline-1-carboxamide] | ≥ 80 | ≥ 80
C[C@@H](c1ncnn1-c1ncccn1)N(C)C(=O)N(C)c1cnc(C(F)(F)F)cc1Cl [Example P270, 1-[4-chloro-6-(trifluoromethyl)-3-pyridyl]-1,3-dimethyl-3-[(1S)-1-(2-pyrimidin-2-yl-1,2,4-triazol-3-yl)ethyl]urea] | ≥ 80 | ≥ 80
C[C@H](NC(=O)Nc1ccc(Cl)cc1Oc1ccc(Cl)cc1)c1ncnn1-c1ncccn1 [Example P51, 1-[4-chloro-2-(4-chlorophenoxy)phenyl]-3-[(1S)-1-(2-pyrimidin-2-yl-1,2,4-triazol-3-yl)ethyl]urea] | ≥ 80 | ≥ 80
C[C@H](NC(=O)Nc1ccc(C(F)(F)F)c(Cl)c1)c1nccnc1-c1ccc(C#N)cn1 [Example P9, 1-[3-chloro-4-(trifluoromethyl)phenyl]-3-[(1S)-1-[3-(5-cyano-2-pyridyl)pyrazin-2-yl]ethyl]urea] | ≥ 80 | ≥ 80
C[C@H](NC(=O)Nc1cc(C(F)(F)F)c(Cl)cc1Cl)c1ncnn1-c1ncc(C(=O)N(C)C)s1 [Example P170, 2-[5-[(1S)-1-[[2,4-dichloro-5-(trifluoromethyl)phenyl]carbamoyl-amino]ethyl]-1,2,4-triazol-1-yl]-N, N-dimethyl-thiazole-5-carboxamide] | ≥ 80 | ≥ 80
COc1cc(Br)c(Cl)cc1NC(=O)N[C@@H](C)c1ncnn1-c1ncccn1 [Example P368, 1-(4-bromo-5-chloro-2-methoxy-phenyl)-3-[(1S)-1-(2-pyrimidin-2-yl-1,2,4-triazol-3-yl)ethyl]urea] | ≥ 80 | 
CC(NC(=O)N1CCc2cc(C(F)(F)F)ncc21)c1ncnn1-c1ccc(C#N)cn1 (stereo not drawn) [Example P171, N-[1-[2-(5-cyano-2-pyridyl)-1,2,4-triazol-3-yl]ethyl]-5-(trifluoromethyl)-2,3-dihydropyrrolo[2,3-c]pyridine-1-carboxamide] | ≥ 80 | 
C[C@H](NC(=O)Nc1cc(Cl)c(OC(F)(F)C(F)C(F)(F)F)cc1Cl)c1ncnn1-c1ncccn1 (stereo partly drawn) [Example P211, 1-[2,5-dichloro-4-(1,1,2,3,3,3-hexafluoropropoxy)phenyl]-3-[(1S)-1-(2-pyrimidin-2-yl-1,2,4-triazol-3-yl)ethyl]urea] | ≥ 80 | 
C[C@H](NC(=O)Nc1cc(C(F)(F)F)c(Cl)cc1Cl)c1ncnn1-c1ccc(C(=O)N2CCOCC2)cn1 [Example P175, 1-[2,4-dichloro-5-(trifluoromethyl)phenyl]-3-[(1S)-1-[2-[5-(morpholine-4-carbonyl)-2-pyridyl]-1,2,4-triazol-3-yl]ethyl]urea] | ≥ 80 | 
C[C@H](NC(=O)Nc1cc(OCC#N)c(Cl)cc1Cl)c1ncnn1-c1ncccn1 [Example P161, 1-[2,4-dichloro-5-(cyanomethoxy)phenyl]-3-[(1S)-1-(2-pyrimidin-2-yl-1,2,4-triazol-3-yl)ethyl]urea] | ≥ 80 | 
Cc1cc(Cl)c(Br)cc1NC(=O)N[C@@H](C)c1ncnn1-c1ncccn1 [Example P305, 1-(5-bromo-4-chloro-2-methyl-phenyl)-3-[(1S)-1-(2-pyrimidin-2-yl-1,2,4-triazol-3-yl)ethyl]urea] | ≥ 80 | 
Cc1cc(NC(=O)N[C@@H](C)c2ncnn2-c2ncccn2)c(Cl)cc1Br [Example P290, 1-(4-bromo-2-chloro-5-methyl-phenyl)-3-[(1S)-1-(2-pyrimidin-2-yl-1,2,4-triazol-3-yl)ethyl]urea] | ≥ 80 | 
